The test has as its target T1, human GnRH receptor (Homo sapiens, UniProt P30968).
T1 construct: expressed in transfected cells; membrane preparations
T1 sequence (P30968 1-328): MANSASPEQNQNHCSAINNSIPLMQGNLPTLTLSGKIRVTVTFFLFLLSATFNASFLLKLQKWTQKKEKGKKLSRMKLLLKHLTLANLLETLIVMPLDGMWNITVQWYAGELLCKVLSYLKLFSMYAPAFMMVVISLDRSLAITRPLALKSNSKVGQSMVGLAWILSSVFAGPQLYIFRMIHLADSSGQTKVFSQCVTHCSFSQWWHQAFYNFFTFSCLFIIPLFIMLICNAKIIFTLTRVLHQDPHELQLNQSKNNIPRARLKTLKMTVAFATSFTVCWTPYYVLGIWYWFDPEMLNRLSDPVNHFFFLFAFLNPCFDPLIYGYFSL
Put plainly: peptide competitive human receptor binding assays (radioligand displacement). To be noted: tested in one or more of the peptide competitive human receptor binding assays. On the procedure: HEK293 cells stably transfected with the human GnRH receptor are grown for two days after achieving confluence then are harvested by striking tissue culture flasks against a firm surface. Cells are collected by centrifugation at 1000 g for […]. Cell pellets are resuspended in 5% sucrose and homogenized using a polytron homogenizer for two 15 second homogenization steps. Cell homogenates are then centrifuged for 5 minutes at 3000 g to remove nuclei and the supernatant subsequently centrifuged for 30 minutes at 44,000 g to collect the membrane fraction. The membrane pellet is resuspended in GnRH binding buffer (10 mM HEPES, pH 7.5, 150 mM NaCl and 0.1% BSA) and aliquots immediately snap-frozen in liquid nitrogen and stored at −80° C. Protein content of the membrane suspension is determined using the Bio-Rad protein assay kit (Bio-Rad).
RBL cells stably transfected with the human GnRH receptor are grown to 80% confluency prior to harvesting. The cells are incubated at 37° C. for 10 min in 0.5 mM EDTA/PBS (Ca^++, Mg^++ free), and are dislodged from the plate by gentle rapping of the flasks. Cells are collected and pelleted by centrifugation at 1000 g for 5 minutes. Cell pellets are resuspended in buffer (DPBS supplemented with 10 mM MgCl2, 2 mM EGTA, pH=7.4), and cell lysis is performed using a pressure cell and applying N2 at a pressure of 900 psi for 30 min at 4° C. Unbroken cells and larger debris were removed by centrifugation at 1200 g for 10 min at 4° C. The cell membrane supernatant is then centrifuged at 45,000 g and the resulting membrane pellet is resuspended in assay buffer and homogenized on ice using a tissue homogenizer. Protein concentrations are determined using the Coomassie Plus Protein Reagent kit. Membranes are aliquoted and stored at −80° C. until ready for use.
Radioligand binding displacement assays using the peptide radioligands are performed in buffer containing 10 mM HEPES, 150 mM NaCl and 0.1% BSA, pH=7.5. Radioligand binding assays employing the use of [^3H]-1-(2,6-difluorobenzyl)-3-[(2R)-amino-2-phenethyl]-5-(2-fluoro-3-methoxyphenyl)-6-methyluracil (here the 3-methoxy group is tritiated) are run in buffer containing 50 mM Tris, 150 mM NaCl, 5 mM MgCl2, 0.01% saponin and 0.5 mM EDTA, pH=7.5. Radioligand displacement assays are performed by incubating radioligand ([^125I-Tyr^5, DLeu^6, NMeLeu^7, Pro^9-NEt]GnRH (0.1 nM), [His^5, ^125I-DTyr^6]GnRH (0.2 nM) (31) or [^3H]-1-(2,6-difluorobenzyl)-3-[(2R)-amino-2-phenethyl]-5-(2-fluoro-3-methoxyphenyl)-6-methyluracil (1 nM)), unlabeled competitors at concentrations ranging from 0.3 pM to 10 μM, and membranes for 2 hrs at rt. 10 to 20 μg protein/well is used from membrane preparations for human, monkey and rabbit GnRH receptor. 5 μg/well and 60 μg/well of membranes are used for rat and dog GnRH receptors, respectively. Binding assays are performed in either Millipore 96-well GF/C filtration plates (for ([^125I-Tyr^5, DLeu^6, NMeLeu^7, Pro^9-NEt]GnRH assays), or in 96 well low binding plates, which are subsequently filtered onto GF/C Unifilters. Filters are pretreated with 0.5% PEI for 30 min prior to use. Reactions are terminated by rapid vacuum filtration, and the filters are washed twice with 250 μL ice cold PBS pH=7.4 (0.01% Tween-20 is included in wash media for [His^5, ^125I-DTyr^6]GnRH and [^3H]-1-(2,6-difluorobenzyl)-3-[(2R)-amino-2-phenethyl]-5-(2-fluoro-3-methoxyphenyl)-6-methyluracil radioligands). The filters are dried, and the Millipore filters are monitored for radioactivity using a Cobra II gamma counter (Perkin Elmer Life Sciences). For assays filtered onto the GF/C Unifilter plates, 50 μL scintillation fluid is added to each filter, and radioactivity is monitored using a TopCount NXT. For iodinated radioligands, total radioligand is monitored on a gamma counter, and for the tritiated radioligand, total radioligand is monitored using a Perkin Elmer 1600TR liquid scintillation counter. […]
(In general: Displacement assays read how much labelled ligand stays bound in the presence of the test substance.)
One may read the Ki as the equilibrium dissociation constant of an inhibitor or competing ligand from its target. With `Cc1cc(Cl)ncc1-c1cc(S(=O)(=O)N2CCCCc3ccccc32)ccc1Cl` [Example 4-1, 1-[4-chloro-3-(6-chloro-4-methyl-pyridin-3-yl)-benzenesulfonyl]-2,3,4,5-tetrahydro-1H-1-benzazepine], the Ki is ≤ 0.1 µM.
With `Cc1cc(Cl)ncc1-c1cc(S(=O)(=O)N2CCCC(=O)c3ccccc32)ccc1Cl` [Example 4-2], the Ki is ≤ 0.1 µM.
To `Cc1cc(Cl)ncc1-c1cc(S(=O)(=O)N2CCCc3ccccc32)ccc1Cl` [Example 4-3] belongs ≤ 0.1 µM; to `Cc1cc(Cl)ncc1-c1cc(S(=O)(=O)N2CCOc3ccccc32)ccc1Cl` [Example 4-4], ≤ 0.1 µM.
To `Cc1cc(Cl)ncc1-c1cc(S(=O)(=O)N2CCC(C)(C)c3ccccc32)ccc1Cl` [Example 4-5] belongs ≤ 0.1 µM; to `Cc1cc(Cl)c(-c2cc(S(=O)(=O)N3CCCc4ccccc43)ccc2Cl)cn1` [Example 4-8], ≤ 0.1 µM; to `Cc1cc(C(F)(F)F)ncc1-c1cc(S(=O)(=O)N2CCCCc3ccccc32)ccc1Cl` [Example 4-9], ≤ 0.1 µM.
As to `Cc1cc(C(F)(F)F)ncc1-c1cc(S(=O)(=O)N2CCCc3ccccc32)ccc1Cl` [Example 4-10], the inhibition constant (Ki) was ≤ 0.1 µM.
To `Cc1cc(C(F)(F)F)ncc1-c1cc(S(=O)(=O)N2CCOc3ccccc32)ccc1Cl` [Example 4-11] belongs ≤ 0.1 µM.
In the case of `N#Cc1cc(C(F)(F)F)ncc1-c1cc(S(=O)(=O)N2CCCCc3ccccc32)ccc1Cl` [Example 4-13], the Ki is ≤ 0.1 µM.
`Cc1cccc2c1N(S(=O)(=O)c1ccc(Cl)c(-c3cnc(C(F)(F)F)cc3C#N)c1)CCC2` [Example 4-14]: the Ki was ≤ 0.1 µM.
To `N#Cc1cc(C(F)(F)F)ncc1-c1cc(S(=O)(=O)N2CCOc3ccccc32)ccc1Cl` [Example 4-15] belongs ≤ 0.1 µM; to `CC1(C)CCN(S(=O)(=O)c2ccc(Cl)c(-c3cnc(C(F)(F)F)cc3C#N)c2)c2ccccc21` [Example 4-16], ≤ 0.1 µM.
To `N#Cc1cc(C(F)(F)F)ncc1-c1cc(S(=O)(=O)N2CCOCc3ccccc32)ccc1Cl` [Example 4-17] belongs ≤ 0.1 µM.
On to `N#Cc1cc2ccccc2nc1-c1cc(S(=O)(=O)N2CCCCc3ccccc32)ccc1Cl` [Example 4-18], for which the inhibition constant (Ki) is ≤ 0.1 µM.
To `CC1(C)CCN(S(=O)(=O)c2ccc(Cl)c(-c3nc4ccccc4cc3C#N)c2)c2ccccc21` [Example 4-19] belongs ≤ 0.1 µM.
To `Cc1cccc2c1N(S(=O)(=O)c1ccc(Cl)c(-c3cnc(C(F)(F)F)cc3C#N)c1)CCCO2` [Example 4-20] belongs ≤ 0.1 µM.
To `Cc1cc(Cl)ncc1-c1cc(S(=O)(=O)N2CCCOc3ccccc32)ccc1Cl` [Example 4-23] belongs ≤ 0.1 µM; to `N#Cc1cc(C(F)(F)F)ncc1-c1cc(S(=O)(=O)N2CCCOc3ccccc32)ccc1Cl` [Example 4-24], ≤ 0.1 µM; to `O=S(=O)(c1ccc(Cl)c(-c2cnc(Cl)cc2Cl)c1)N1CCCCc2ccccc21` [Example 5-1, 1-[4-Chloro-3-(4,6-dichloro-pyridin-3-yl)-benzenesulfonyl]-2,3,4,5-tetrahydro-1H-1-benzazepine], ≤ 0.1 µM.
`COc1ccccc1N(C)S(=O)(=O)c1ccc(Cl)c(-c2cnc(Cl)cc2Cl)c1` [Example 5-2]: the Ki is ≤ 0.1 µM.
To `O=S(=O)(c1ccc(Cl)c(-c2cnc(Cl)cc2Cl)c1)N1CCCc2ccccc21` [Example 5-3] belongs ≤ 0.1 µM; to `O=S(=O)(c1ccc(Cl)c(-c2cnc(Cl)cc2Cl)c1)N1CCOc2ccccc21` [Example 5-4], ≤ 0.1 µM.
To `CC1(C)CCN(S(=O)(=O)c2ccc(Cl)c(-c3cnc(Cl)cc3Cl)c2)c2ccccc21` [Example 5-5] belongs ≤ 0.1 µM.
To `CC1CCc2ccccc2N1S(=O)(=O)c1ccc(Cl)c(-c2cnc(Cl)cc2Cl)c1` (stereo not shown) [Example 5-6] belongs ≤ 0.1 µM.

Values taken from patent US8507536B2, “Gonadotropin-releasing hormone receptor antagonists and methods relating thereto” (Neurocrine Biosciences, Inc., priority 2007, dated 2013).
